Experimental data from patent US20030083366A1, “Combination chemotherapy” (priority 2001, published 2003).
“And” between values parts separate entries of the source, which are not always exact repeats. Equal values may be shown once. Read-outs that look alike come from different tables or passages of the source.

Experiments:
[1] = LC-12 squamous cell lung carcinoma implanted subcutaneously in BALB/C mice, chemotherapy study; type: in vivo, female BALB/C mice; details: female, mouse, in vivo, tumor-bearing BALB/C mice
Experimental: (§1) The synergistic combinations provided by this invention have been evaluated in standard chemotherapy studies using female BALB/C mice weighing 18 to 20 g. The test mice were obtained from Charles River Laboratories, Wilmington, Mass. On Day 0 of the test, each mouse was surgically implanted (subcutaneously) with a fragment of LC-12 squamous cell lung carcinoma tumor weighing approximately 30 to 60 mg. The tumor fragments were implanted using a 12 gauge trocar. The mice were weighed weekly, and tumor size (width and length in mm) were measured two times each week with standard calipers. Tumor mass for each animal was calculated according to the formula: [formula]
(§2) where “a” is width of the tumor in mm, and “b” is the length in mm. Evaluation of anticancer activity was established by the formula T-C, where “T” and “C” are the median time (in days) required for the treated and control (respectively) tumors to reach a predetermined size of about 750 mg (the “evaluation size”). Tumors generally reached size of about 150 to about 200 mg before drug dosing was initiated. Antitumor activity was assessed according to four parameters: (1) partial tumor response (PR); (2) complete tumor response (CR); (3) tumor-free survival (TF); and (4) tumor growth delay (TL). Tumor growth delay is expressed as a T-C value, where T is the median days required for the treatment group tumors to reach a predetermined size (e.g., 750 mg), and C is the median days for the control group tumors to reach this size. From the tumor growth delay value, the net log10 tumor cell kill is calculated as follows:
(§3) Net log10 tumor cell kill=[(T−C)−Rx]/3.32×Td
(§4) where Td is the days for the tumor mass to double, and Rx is the total days of treatment. Td is estimated from the best fit straight line from a log-linear plot of the control-group tumors in exponential growth (200 to 800 mg range). The conversion of the T-C values to log10 cell kill is possible because the Td for tumors regrowing after treatment is approximately the same as that for untreated control mice. The net log10 kill value normalizes the efficacy data for tumor growth during treatment regimens of varied duration and provides an estimate of whether an actual regression of the tumor occurred. Positive values indicate that an actual reduction of tumor burden occurred. Negative values indicate the tumor actually grew (although possibly more slowly) during treatment. Tumor-free survivors were excluded from these calculations.
(§5) Acetyldinaline was suspended in 0.5% aqueous methyl cellulose and administered orally at various dosages in 0.5 mL volumes. Docetaxel was dissolved in 5% ethanol, 5% Tween 80, 90% aqueous saline and administered intravenously at various dosage levels in 0.2 mL injections.
(§6) The animals were divided into groups of 10 animals each. One group served as controls and received vehicle alone, with no drug treatments. Two groups received oral doses of acetyldinaline alone at a specified level (as shown in Table 3) of active drug (30 mg/kg and 60 mg/kg). […] Three groups received docetaxel alone at doses of 3.5, 5.6, and 9.0 mg/kg. Two groups received acetyldinaline at the recited doses, in combination with 3.5 mg/kg of docetaxel, and another two groups received acetyldinaline at the recited doses in combination with docetaxel at […], and the final two groups received acetyldinaline at the recited doses, in combination until 9.0 mg/kg of docetaxel.

[2] = tested on: LC-12 squamous cell lung carcinoma tumor; experiment: as above; type: in vivo, female BALB/C mice; details: for antitumor effect of the agents individually: single agent
Experimental: as §1, §2, §3, §4, §5, §6

[3] = Phase 1 dose-escalation study of CI-994 in solid tumor patients; type: in vivo
Experimental: In one such study, patients were treated using a dose-escalation scheme that increased both the daily dose and the duration of treatment. The majority of patients had received extensive prior chemotherapy. The maximum-tolerated dose (MTD) was 15 mg/m^2/day when the duration of treatment was 14 consecutive days. To allow more prolonged treatment, lower doses were studied. Using a schedule of 8 weeks of continuous daily therapy, followed by a 2-week ‘drug holiday’, the MTD was 8 mg/m^2/day. […] Blood counts tended to stabilize even with continued treatment and to recover quickly when treatment was stopped.

[4] = Phase 1 study, once daily high-dose 5-day schedule, relapsed acute leukemia or other hematologic malignancy; type: in vivo
Experimental: An additional Phase 1 study was conducted in patients with relapsed acute leukemia or other hematologic malignancy using a once daily high-dose 5-day dosing schedule. […] Hematologic toxicities cannot be assessed in this patient population. Two patients with AML developed tumor lysis syndrome, resulting in one death. Transient decreases in peripheral white blood cell counts were noted.

[5] = Pharmacokinetics and food effect in the solid tumor Phase 1 study; type: in vivo, patients; details: oral, after a fasting period
[6] = Route of elimination of radiolabeled drug, monkeys; type: in vivo; details: within 24 hours
Experimental: (§7) Mass balance/route of elimination studies have not been conducted in humans. Animal studies indicate that the principal route of elimination is via renal excretion, with 80% and 62% of radiolabeled drug appearing in the urine of monkeys and rats, respectively, within 24 hours.

[7] = Route of elimination of radiolabeled drug, rats; type: in vivo; details: within 24 hours
Experimental: as §7

[8] = Docetaxel 3.5 mg/kg/injection iv, Days 11, 15, 19, alone
[9] = Docetaxel 5.6 mg/kg/injection iv, Days 11, 15, 19, alone
[10] = Docetaxel 9.0 mg/kg/injection iv, Days 11, 15, 19, alone
[11] = CI-994 30.0 mg/kg/injection oral, Days 11-13, 15-17, 19-21, alone
[12] = CI-994 60 mg/kg/day (MTD), alone
[13] = CI-994 60.0 mg/kg/injection oral, Days 11-13, 15-17, 19-21, alone

CC(=O)O[C@@]12CO[C@@H]1C[C@H](O)[C@@]1(C)C(=O)[C@H](O)C3=C(C)[C@@H](OC(=O)[C@H](O)[C@@H](NC(=O)OC(C)(C)C)c4ccccc4)C[C@@](O)([C@@H](OC(=O)c4ccccc4)[C@H]21)C3(C)C [Docetaxel]
MTD ([1]; intravenous, read-out: MTD of docetaxel): 9 mg/kg/day | % Weight Change [2, 8]: −7.3% | CR (complete response) [2, 8]: 0/10 | Non-specific Deaths [2, 8]: 0/10 | PR (partial response) [2, 8]: 0/10 | T − C (tumor growth delay to 750 mg) [2, 8]: -1.7 days | Tumor Free (Day 105) [2, 8]: 0/10 | % Weight Change [2, 9]: −11.7% | CR (complete response) [2, 9]: 0/10 | Non-specific Deaths [2, 9]: 1/10 | PR (partial response) [2, 9]: 1/10 | T − C (tumor growth delay to 750 mg) [2, 9]: -0.5 days | Tumor Free (Day 105) [2, 9]: 0/10 | % Weight Change [2, 10]: −16.7% | CR (complete response) [2, 10]: 0/10 | Net Log10 Kill [2, 10]: −0.2 log10 | Non-specific Deaths [2, 10]: 1/10 | PR (partial response) [2, 10]: 3/10 | T − C (tumor growth delay to 750 mg) [2, 10]: 3.3 days | Tumor Free (Day 105) [2, 10]: 0/10 | CR (complete response) ([2]; Docetaxel 9.0 mg/kg/injection iv, Days 11, 15, 19, alone, listed as docetaxel): no complete tumor responses | partial tumor responses ([2]; docetaxel 9 mg/kg/day (MTD), alone): 30% | antitumor effect of the agents individually [2]: only modest antitumor efforts

CC(=O)Nc1ccc(C(=O)Nc2ccccc2N)cc1 [CI-994, 4-acetylamino-N-(2′-aminophenyl)-benzamide]
MTD ([1]; oral): 60 mg/kg/day | partial tumor response ([2]; CI-994 30 mg/kg/day (50% its MTD), alone): 20% | % Weight Change [2, 11]: −5.5% | Net Log10 Kill [2, 11]: −0.5 log10 | Non-specific Deaths [2, 11]: 0/10 | PR (partial response) [2, 11]: 2/10 | T − C (tumor growth delay to 750 mg) [2, 11]: 4.6 days | Tumor Free (Day 105) [2, 11]: 0/10 | CR (complete response) ([2]; CI-994 30.0 mg/kg/injection oral, Days 11-13, 15-17, 19-21, alone, 30 mg/kg): no complete tumor responses and 0/10 | complete tumor response rate [2, 12]: 40% | partial tumor response [2, 12]: 10% | mice tumor free when the study ended ([2]; CI-994 60 mg/kg/day (MTD), alone, 105 days after the last CI-994 treatment): 30% | % Weight Change [2, 13]: −10.5% | CR (complete response) [2, 13]: 4/10 | Net Log10 Kill [2, 13]: −0.3 log10 | Non-specific Deaths [2, 13]: 0/10 | PR (partial response) [2, 13]: 1/10 | T − C (tumor growth delay to 750 mg) [2, 13]: 4.9 days | Tumor Free (Day 105) [2, 13]: 3/10 | antitumor effect of the agents individually [2]: only modest antitumor efforts | MTD ([3]; 8 weeks of continuous daily therapy followed by a 2-week drug holiday): 8 mg/m^2/day | Responses ([3]; Phase 1 patients): one partial response in a heavily pretreated patient with NSCLC and a minor response in one patient each with renal cell cancer and NSCLC | Other toxicities ([3]; human, in vivo): nausea, vomiting, diarrhea, anorexia, fatigue, mucositis, headache, dehydration, and increases in liver and renal function test values | cumulative toxicity ([3]; human, in vivo): no evidence of cumulative toxicity | dose-limiting toxicity ([3]; human, in vivo): thrombocytopenia or neutropenia | time of occurrence of dose-limiting toxicity after start of therapy ([3]; human, in vivo): ≤ 1 month | maximum-tolerated dose (MTD) ([3]; treatment for 14 consecutive days, patients mostly with extensive prior chemotherapy): 15 mg/m^2/day | Other adverse events ([4]; in vivo): nausea, vomiting, hypotension resulting from dehydration, hypocalcemia, headache | dose-limiting toxicity ([4]; in vivo): acute CNS toxicity manifested as sedation and somnolence | MTD ([4]; once daily high-dose 5-day dosing schedule): 135 mg/m^2/day | half-life ([5]; human, plasma, preliminary results, read-out: terminal elimination half-life (converted)): ~900 min | maximum plasma CI-994 concentrations with increasing dose levels [5]: less than dose-proportional | terminal elimination half-life and apparent clearance rate versus dose [5]: independent of the dose administered | radiolabeled drug appearing in the urine [6]: 80% | radiolabeled drug appearing in the urine [7]: 62% | Clinical benefit (8 mg/m^2 given orally daily): reported in patients with renal cell cancer | Objective responses (8 mg/m^2 given orally daily): seen in patients with nonsmall cell lung cancer | dose-limiting toxicity (in vivo, po): Thrombocytopenia
